Activity calls are given as the source filed them. No cut-off for these calls is given here.
Columns and labels:
Mus musculus [1] = experiment: Anti-NAFLD activity in high-fat diet-induced male C57BL/6J mouse model assessed as increase in X5P level in liver at 125 mg/kg, po compound administrated as copper complex measured for 10 weeks by LC-MS/MS analysis; assay type: functional, organism-based
[2] = Toxicity in male C57BL/6 mouse assessed as change in ALT level at 125 mg/kg, po compound administrated as copper complex measured for 10 weeks; assay type: organism-based; conditions: in vivo, 1680 h
Mus musculus [3] = experiment: Anti-NAFLD activity in high-fat diet-induced male C57BL/6J mouse model assessed as increase in glucose level serum at 125 mg/kg, po compound administrated as copper complex measured for 10 weeks; assay type: functional, organism-based
HepG2 [4] = experiment: Cytotoxicity against human HepG2 cells assessed as cell viability at 0.1 to 5 uM measured at 24 hrs by MTT assay; assay type: functional, cell-based; conditions: dose 0.1-5 µM
HepG2 [5] = experiment: Anti-NAFLD activity in palmitic acid human HepG2 NAFLD cell model assessed as effect on IL6 expression at 0.5 uM incubated for 24 hrs in presence of CuCl2 by mRNA sequencing analysis; assay type: functional, cell-based
HeLa [6] = experiment: Induction of copper transporting activity in human HeLa cells assessed as increase in intracellular copper levels by measuring change in fluorescence intensity; assay type: functional, cell-based
Mus musculus [7] = experiment: Anti-NAFLD activity in high-fat diet-induced male C57BL/6J mouse model assessed as increase in copper level in serum at 125 mg/kg, po compound administrated as copper complex measured for 10 weeks by ICP-MS analysis; assay type: functional, organism-based
[8] = Stability of the compound in cell culture medium containing 10% fetal bovine serum in presence of EDTA by UV-Vis spectrophotometer analysis; assay type: physicochemical, cell-free; conditions: cattle
HepG2 [9] = experiment: Anti-NAFLD activity in palmitic acid human HepG2 NAFLD cell model assessed as effect on CYP4F11 expression at 0.5 uM incubated for 24 hrs in presence of CuCl2 by mRNA sequencing analysis; assay type: functional, cell-based
HepG2 [10] = experiment: Anti-NAFLD activity in palmitic acid human HepG2 NAFLD cell model assessed as effect on IFIT3 expression at 0.5 uM incubated for 24 hrs in presence of CuCl2 by mRNA sequencing analysis; assay type: functional, cell-based
Mus musculus [11] = experiment: Anti-NAFLD activity in high-fat diet-induced male C57BL/6J mouse model assessed as increase in liver weight at 125 mg/kg, po compound administrated as copper complex measured for 10 weeks […]; assay type: functional, organism-based
HepG2 [12] = experiment: Anti-NAFLD activity in palmitic acid human HepG2 NAFLD cell model assessed as upregulation of CYP4F12 expression at 0.5 uM incubated for 24 hrs in presence of CuCl2 by mRNA sequencing analysis; assay type: functional, cell-based
HepG2 [13] = experiment: Anti-NAFLD activity in palmitic acid human HepG2 NAFLD cell model assessed as upregulation of CYP4F11 expression at 0.5 uM incubated for 24 hrs in presence of CuCl2 by mRNA sequencing analysis; assay type: functional, cell-based
HepG2 [14] = experiment: Anti-NAFLD activity in palmitic acid human HepG2 NAFLD cell model assessed as increase in ROS level at 5 uM compound administrated as copper complex measured at 24 hrs by DCFH-DA probe based flow cytometry analysis; assay type: functional
HepG2 [15] = experiment: Anti-NAFLD activity in palmitic acid human HepG2 NAFLD cell model assessed as effect on HMOX1 expression at 0.5 uM incubated for 24 hrs in presence of CuCl2 by mRNA sequencing analysis; assay type: functional, cell-based
[16] = Stability of compound in PBS buffer in presence of cysteine by UV-Vis spectrophotometer analysis; assay type: physicochemical
HeLa [17] = experiment: Induction of copper transporting activity in human HeLa cells assessed as increase in intracellular copper levels incubated upto 24 hrs by ICP-MS analysis; assay type: functional, cell-based; conditions: dose 0.02-20 µM
HepG2 [18] = experiment: Anti-NAFLD activity in palmitic acid human HepG2 NAFLD cell model assessed as downregulation of STEAP4 expression at 0.5 uM incubated for 24 hrs in presence of CuCl2 by mRNA sequencing analysis; assay type: functional, cell-based
Mus musculus [19] = experiment: Anti-NAFLD activity in high-fat diet-induced male C57BL/6J mouse model assessed as increase in lipid droplets accumulation in liver at 125 mg/kg, po compound administrated as copper complex measured for 10 weeks by H and E staining based analysis; assay type: functional, organism-based
Mus musculus [20] = experiment: Anti-NAFLD activity in high-fat diet-induced male C57BL/6J mouse model assessed as reduction in serum NEFA level at 125 mg/kg, po compound administrated as copper complex measured for 10 weeks; assay type: functional; set-up: scale not given: the % may be the effect or the level left
HepG2 [21] = experiment: Anti-NAFLD activity in palmitic acid human HepG2 NAFLD cell model assessed as upregulation of SOD1 expression at 0.5 uM incubated for 24 hrs in presence of CuCl2 by mRNA sequencing analysis; assay type: functional, cell-based
HepG2 [22] = experiment: Anti-NAFLD activity in palmitic acid human HepG2 NAFLD cell model assessed as upregulation of POR expression at 0.5 uM incubated for 24 hrs in presence of CuCl2 by mRNA sequencing analysis; assay type: functional, cell-based
[23] = Toxicity in male C57BL/6 mouse assessed as spleen lesion at 125 mg/kg, po compound administrated as copper complex measured for 10 weeks; assay type: organism-based; conditions: in vivo, 1680 h
HepG2 [24] = experiment: Anti-NAFLD activity in palmitic acid human HepG2 NAFLD cell model assessed as downregulation of STAT1 expression at 0.5 uM incubated for 24 hrs in presence of CuCl2 by mRNA sequencing analysis; assay type: functional, cell-based
[25] = Stability of compound in PBS buffer in presence of EDTA by UV-Vis spectrophotometer analysis; assay type: physicochemical
Mus musculus [26] = experiment: Anti-NAFLD activity in high-fat diet-induced male C57BL/6J mouse model assessed as increase in E4P level in liver at 125 mg/kg, po compound administrated as copper complex measured for 10 weeks by LC-MS/MS analysis; assay type: functional, organism-based
HepG2 [27] = experiment: Anti-NAFLD activity in palmitic acid human HepG2 NAFLD cell model assessed as decrease in lipid droplet level at 5 uM measured at 24 hrs by Oil Red O staining based assay relative to control; assay type: functional; set-up: scale not given: the % may be the effect or the level left
HepG2 [28] = experiment: Anti-NAFLD activity in palmitic acid human HepG2 NAFLD cell model assessed as downregulation of STAT2 expression at 0.5 uM incubated for 24 hrs in presence of CuCl2 by mRNA sequencing analysis; assay type: functional, cell-based
Mus musculus [29] = experiment: Anti-NAFLD activity in high-fat diet-induced male C57BL/6J mouse model assessed as increase in R5P level in liver at 125 mg/kg, po compound administrated as copper complex measured for 10 weeks by LC-MS/MS analysis; assay type: functional, organism-based
[30] = Toxicity in male C57BL/6 mouse assessed as lung lesion at 125 mg/kg, po compound administrated as copper complex measured for 10 weeks; assay type: organism-based; conditions: in vivo, 1680 h
[31] = Stability of the compound in cell culture medium containing 10% fetal bovine serum in presence of histidine by UV-Vis spectrophotometer analysis; assay type: physicochemical, cell-free; conditions: cattle
Mus musculus [32] = experiment: Anti-NAFLD activity in high-fat diet-induced male C57BL/6J mouse model assessed as increase in S7P level in liver at 125 mg/kg, po compound administrated as copper complex measured for 10 weeks by LC-MS/MS analysis; assay type: functional, organism-based

Q: With O=c1c(O)c(-c2ccc3cccc(O)c3n2)oc2ccccc12 as the molecule, how does the Activity (Mus musculus [1]) read?
A: Its Activity is “Active”.

Q: And the Activity [2]?
A: Its Activity is “Non-toxic”.

Q: What about the Activity (Mus musculus [3]) of the same molecule?
A: The Activity was “Active”.

Q: And the Activity (HepG2 [4])?
A: Its Activity is “Active”.

Q: What about the Activity (HepG2 [5]) of the same molecule?
A: The Activity was “Active”.

Q: What about the Activity (HeLa [6]) of the same molecule?
A: Its Activity is “Active”.

Q: And the Activity (Mus musculus [7])?
A: Its Activity is “Active”.

Q: What about the Stability [8] of the same molecule?
A: Its Stability is “Stable”.

Q: And the Activity (HepG2 [9])?
A: Its Activity is “Active”.

Q: And the Activity (HepG2 [10])?
A: Its Activity is “Active”.

Q: What about the Activity (Mus musculus [11]) of the same molecule?
A: Its Activity is “Active”.

Q: What about the Activity (HepG2 [12]) of the same molecule?
A: The Activity was “Active”.

Q: What about the Activity (HepG2 [13]) of the same molecule?
A: The Activity was “Active”.

Q: What about the Activity (HepG2 [14]) of the same molecule?
A: The Activity was “Active”.

Q: What about the Activity (HepG2 [15]) of the same molecule?
A: The Activity was “Active”.

Q: And the Stability [16]?
A: The Stability was “Stable”.

Q: What about the Activity (HeLa [17]) of the same molecule?
A: The Activity was “Dose-dependent-effect”.

Q: What about the Activity (HepG2 [18]) of the same molecule?
A: The Activity was “Active”.

Q: What about the Activity (Mus musculus [19]) of the same molecule?
A: The Activity was “Active”.

Q: What about the Activity (Mus musculus [20]) of the same molecule?
A: The Activity was 52%.

Q: What about the Activity (HepG2 [21]) of the same molecule?
A: Its Activity is “Active”.

Q: What about the Activity (HepG2 [22]) of the same molecule?
A: The Activity was “Active”.

Q: And the Activity [23]?
A: Its Activity is “Non-toxic”.

Q: And the Activity (HepG2 [24])?
A: Its Activity is “Active”.

Q: And the Stability [25]?
A: The Stability was “Stable”.

Q: What about the Activity (Mus musculus [26]) of the same molecule?
A: The Activity was “Active”.

Q: And the Activity (HepG2 [27])?
A: The Activity was 61%.

Q: And the Activity (HepG2 [28])?
A: The Activity was “Active”.

Q: What about the Activity (Mus musculus [29]) of the same molecule?
A: Its Activity is “Active”.

Q: And the Activity [30]?
A: Its Activity is “Non-toxic”.

Q: What about the Stability [31] of the same molecule?
A: Its Stability is “Stable”.

Q: What about the Activity (Mus musculus [32]) of the same molecule?
A: Its Activity is “Active”.

Reference: ChEMBL document CHEMBL6115034, “Pseudonatural Flavonols as Novel Copper Ionophores for NAFLD Intervention via Synergistic Copper Delivery and Flavonoid Activity” (J Med Chem, 2025)
